Reference: publication PMC8270262 (Molecules, 2021)
“Also recorded” adds a separate entry of the source.

Assays:
SARS-CoV-2 PL^pro = SARS-CoV-2 PL^pro (Severe acute respiratory syndrome coronavirus 2, UniProt P0DTD1); experiment: biochemical
DENV protease = conditions: enzyme concentration 1 μM; cited from earlier work
WNF protease = conditions: cited from earlier work

Compound | IC50 (SARS-CoV-2 PL^pro) | IC50 (DENV protease) | IC50 (WNF protease) | Effect of reducing agent on PLpro inhibition (in words) (SARS-CoV-2 PL^pro)
Sc1ncnc2nc[nH]c12 [6-MP, 6-mercaptopurine] | ~66000 nM |  |  | 
Aprotinin |  | 65 nM | 20 nM | 
CCN(CC)C(=S)SSC(=S)N(CC)CC [Antabuse] |  |  |  | significantly increases the IC50 values
Sc1ncc2[nH]cnc2n1 [2-MP, 2-mercaptopurine] | 820 ± 600 nM |  |  | diminished; also recorded: significantly increases the IC50 values
